“Also recorded” adds a separate entry of the source. Structures can show the parent of a compound that is named as a salt.
How the values were obtained:
Assay type in all cases: cell-based
[1] = target: T1, ΔF508-CFTR (Homo sapiens, UniProt P13569, DEL508-508); assay: iodide efflux assay in CFBE41o− airway epithelial cells; parameters: expressed in transfected cells; host or cells: CFBE41o- (ΔF508/ΔF508) transduced with ΔF508-CFTR, TranzVector lentivirus, provided by J. P. Clancy; conditions: 10 μM pretreatment
T1 sequence (P13569 with tags, fused parts or gaps DEL508-508): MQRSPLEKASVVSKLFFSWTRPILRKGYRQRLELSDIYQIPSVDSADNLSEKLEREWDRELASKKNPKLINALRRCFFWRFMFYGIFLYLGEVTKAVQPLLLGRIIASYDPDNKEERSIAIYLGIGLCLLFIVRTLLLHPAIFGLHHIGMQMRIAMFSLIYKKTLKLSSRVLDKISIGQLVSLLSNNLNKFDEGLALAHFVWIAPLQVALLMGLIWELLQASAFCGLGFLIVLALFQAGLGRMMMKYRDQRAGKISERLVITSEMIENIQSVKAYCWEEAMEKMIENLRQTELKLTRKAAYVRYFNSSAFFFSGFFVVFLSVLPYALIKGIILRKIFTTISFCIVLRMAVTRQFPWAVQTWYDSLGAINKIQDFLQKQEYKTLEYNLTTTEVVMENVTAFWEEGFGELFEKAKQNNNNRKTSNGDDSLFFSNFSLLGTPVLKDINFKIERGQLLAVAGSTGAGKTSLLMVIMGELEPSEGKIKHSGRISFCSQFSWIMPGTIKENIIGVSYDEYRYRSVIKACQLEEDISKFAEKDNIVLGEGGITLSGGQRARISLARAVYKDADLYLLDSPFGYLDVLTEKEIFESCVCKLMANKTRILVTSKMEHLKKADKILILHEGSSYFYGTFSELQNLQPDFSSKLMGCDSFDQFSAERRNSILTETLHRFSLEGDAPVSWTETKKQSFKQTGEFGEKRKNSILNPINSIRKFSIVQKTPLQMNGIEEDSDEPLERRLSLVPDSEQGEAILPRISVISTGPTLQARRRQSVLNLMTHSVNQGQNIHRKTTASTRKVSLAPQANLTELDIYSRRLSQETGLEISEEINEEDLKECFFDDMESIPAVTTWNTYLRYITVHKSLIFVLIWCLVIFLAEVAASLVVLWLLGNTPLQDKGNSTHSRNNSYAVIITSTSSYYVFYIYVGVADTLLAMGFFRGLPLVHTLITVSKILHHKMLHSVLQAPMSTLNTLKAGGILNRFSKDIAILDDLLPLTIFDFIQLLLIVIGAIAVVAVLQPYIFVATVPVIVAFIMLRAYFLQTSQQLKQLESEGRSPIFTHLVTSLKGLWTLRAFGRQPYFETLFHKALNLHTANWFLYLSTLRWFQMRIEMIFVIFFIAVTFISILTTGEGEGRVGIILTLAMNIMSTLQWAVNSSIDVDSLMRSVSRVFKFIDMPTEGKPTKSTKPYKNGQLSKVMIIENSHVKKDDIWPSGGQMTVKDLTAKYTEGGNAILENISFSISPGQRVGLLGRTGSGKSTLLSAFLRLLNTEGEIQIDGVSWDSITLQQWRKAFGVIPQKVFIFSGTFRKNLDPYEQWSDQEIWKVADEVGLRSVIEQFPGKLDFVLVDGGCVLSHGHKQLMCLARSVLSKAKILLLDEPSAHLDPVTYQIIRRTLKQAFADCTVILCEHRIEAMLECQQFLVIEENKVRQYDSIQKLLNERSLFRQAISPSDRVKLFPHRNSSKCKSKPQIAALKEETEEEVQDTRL
Protocol: Experiments were performed by hand or with a robotic liquid handling system (BioRobot 8000, Qiagen, USA) using Qiagen 4.1 software. Cells were cultured in 24-well plates until they reached confluence in order to perform parallel experiments and comparison analysis. After treatment (or not) with a test compound, medium in each well was replaced with 1 ml of iodide loading buffer (in mM: 136 NaI, 3 KNO3, 2 Ca(NO3)2, 11 glucose and 20 Hepes pH 7.4) for 1 hour at 37° C. to permit the I′ to reach equilibrium. […] The loss of intracellular I^− was determined by removing the medium and replacing it with fresh efflux buffer every 1 min for up to 11 min. […] The iodide concentration of each aliquot was determined using an iodide-sensitive electrode (Orion Research Inc., Boston, Mass., USA or Ecomet) and converted to iodide content (i.e. the amount of iodide released during the 1 min interval). […]
Iodide effluxes were performed using a robotic liquid handling system (BioRobot 8000, Qiagen, Valencia, Calif.) and Qiagen 4.1 software. […] Efflux was measured by replacing the medium with 300 μl fresh efflux buffer at 1 min intervals for up to 11 min. […] Iodide concentration was measured in each aliquot (300 μl) using an iodide-sensitive electrode (Orion Research Inc., Boston, Mass.). […]

[2] = target: T1, ΔF508-CFTR; assay: immunoblot and densitometry of mature band C, BHK cells expressing ΔF508-CFTR; parameters: which was then ligated into full length pNUT-CFTR linearized using Hpa1 and Pml1; expressed in transfected cells; conditions: after sildenafil treatment
Protocol: Cell lysates were quantitated by Bradford assay (BioRad) and separated by SDS-PAGE (6% polyacrylamide gels) and analyzed by Western blotting. Western blots were blocked using 5% skimmed milk in PBS, then probed overnight at 4° C. with a primary anti-CFTR antibody at a dilution of 1:1000 monoclonal mouse antibody (clone M3A7, Chemicon). The blots were washed four times in PBS before the addition of the secondary HRP-conjugated anti-mouse antibody, at a dilution of 1:5000 (Amersham) for one hour at room temperature. The blots were washed five times in PBS and probed for chemiluminescence (Pierce). All samples were run with equal protein loading as determined using the Bradford assay (Biorad). Densitometry of the immunoblots was performed using the ImageJ program (National Institutes of Health).
Total protein was quantified in cell lysates using the Bradford assay (BioRad, Hercules, Calif.), separated using SDS-PAGE (6% polyacrylamide gels), and analyzed by Western blotting as described previously (Robert et al., 2007). Western blots were blocked with 5% skimmed milk in PBS and probed overnight at 4° C. with a monoclonal primary anti-CFTR antibody (clone M3A7, Chemicon, Temecula, Calif.) diluted 1:1000. The blots were washed four times in PBS before adding the secondary HRP-conjugated anti-mouse antibody at a dilution of 1:5000 (Amersham, Piscataway, N.J.) for one hour at room temperature, then washed again five times in PBS and visualized using chemiluminescence (Pierce, Rockford, Ill.). The relative intensity of each CFTR glycoform (band B or band C) was estimated by densitometry using the ImageJ software and reported as a percentage of the total CFTR in the same lane (i.e. B+C).

[3] = target: T1, ΔF508-CFTR; assay: iodide efflux assay in BHK cells expressing ΔF508-CFTR; parameters: which was then ligated into full length pNUT-CFTR linearized using Hpa1 and Pml1; expressed in transfected cells; conditions: 24 hours, BHK
Protocol: Experiments were performed by hand or with a robotic liquid handling system (BioRobot 8000, Qiagen, USA) using Qiagen 4.1 software. Cells were cultured in 24-well plates until they reached confluence in order to perform parallel experiments and comparison analysis. After treatment (or not) with a test compound, medium in each well was replaced with 1 ml of iodide loading buffer (in mM: 136 NaI, 3 KNO3, 2 Ca(NO3)2, 11 glucose and 20 Hepes pH 7.4) for 1 hour at 37° C. to permit the I′ to reach equilibrium. At the beginning of each experiment, the loading buffer was removed by aspiration and cells were washed eight times with efflux buffer (same as loading buffer except that NaI was replaced with 136 mM NaNO3) to remove extracellular I^− in each well. The loss of intracellular I^− was determined by removing the medium and replacing it with fresh efflux buffer every 1 min for up to 11 min. The first four aliquots were recovered at 1-minute intervals in an empty 24-well plate and used to establish a stable baseline in efflux buffer alone. A stimulation buffer (efflux buffer containing 50 μM genistein+10 μM forskolin) was then added and sampling continued with replacement by stimulation buffer. The iodide concentration of each aliquot was determined using an iodide-sensitive electrode (Orion Research Inc., Boston, Mass., USA or Ecomet) and converted to iodide content (i.e. the amount of iodide released during the 1 min interval). Curves were constructed by plotting concentration versus time. Data are presented as means±SEM.
Iodide effluxes were performed using a robotic liquid handling system (BioRobot 8000, Qiagen, Valencia, Calif.) and Qiagen 4.1 software. Cells were cultured to confluence in 24-well plates. After treatment (or not) with a test compound, the medium in each well was replaced with 1 ml of iodide loading buffer: 136 mM NaI, 3 mM KNO3, 2 mM Ca(NO3)2, 11 mM glucose, 20 mM Hepes, pH 7.4 with NaOH) and incubated for 1 h at 37° C. At the beginning of each experiment, the loading buffer was removed by aspiration and cells were washed eight times with 300 μl efflux buffer (same as loading buffer except that NaI was replaced with 136 mM NaNO3) to remove extracellular I^−. Efflux was measured by replacing the medium with 300 μl fresh efflux buffer at 1 min intervals for up to 11 min. The first four aliquots were used to establish a stable baseline, then buffer containing 10 μM forskolin+50 μM genistein was used to stimulate CFTR activity. Iodide concentration was measured in each aliquot (300 μl) using an iodide-sensitive electrode (Orion Research Inc., Boston, Mass.). Relative iodide efflux rate was calculated using the difference between maximum (peak) iodide concentration during stimulation and minimum iodide concentration before stimulation (in μM/min). […]

[4] = target: T1, ΔF508-CFTR; parameters: which was then ligated into full length pNUT-CFTR linearized using Hpa1 and Pml1; expressed in transfected cells
Procedure, shortened: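 BHK cells stably expressing 3HA-tagged ΔF508-CFTR (tags in fourth extracellular loop) treated with compound at 20 μM final for 24 h at 37° C. Surface ΔF508-CFTR measured on fixed, non-permeabilised cells by anti-HA/FITC immunofluorescence (488/510 nm), relative to untreated-well background; hits retested in duplicate, intrinsically fluorescent compounds excluded.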

[5] = target: T1, ΔF508-CFTR; assay: three stage ELISA of CFTR surface expression, BHK cells expressing ΔF508-CFTR; parameters: which was then ligated into full length pNUT-CFTR linearized using Hpa1 and Pml1; expressed in transfected cells; conditions: 10% glycerol or 1 mM sodium 4-phenylbutyrate, 24 hours
Protocol: Cells were screened for CFTR surface expression using a three stage ELISA system (Pierce Inc., USA). Briefly, BHK cells expressing 3HA-tagged ΔF508-CFTR were seeded in 96-well plates (Corning, USA) at 30,000 cells per well and incubated for 24 h at 37° C. Each well was treated with a test compound for 24 h, then cells were fixed in 4% paraformaldehyde solution and washed with PBS containing 0.1% bovine serum albumin and 0.05% tween-20. Cells were blocked for 1 h in solution containing 3% normal horse serum in PBS at room temperature. […] After washing four more times, the cells were exposed to 3,3′,5,5′ tetramethylbenzidine (Pierce Inc., USA) for 15 min, sulphuric acid (2M) was added, and absorbance was measured at 450 nm (Power-Wavex Bio-tek Instruments).
To determine if cell surface expression of CFTR could be quantified in a high-throughput screen using this assay, cells expressing tagged versions of wt or ΔF508-CFTR were seeded in 96-well plates, treated with 10% glycerol and monitored as light absorbance using an enzyme-linked assay system. As expected, untreated ΔF508-CFTR cells had low absorbance since they expressed little CFTR on their cell surface under control conditions (FIG. 3A).

[6] = target: T2, F508del CFTR (Homo sapiens, UniProt P13569, DEL508-508); assay: YFP fluorescence quenching functional assay (iodide influx), HEK293 cells with F508del CFTR and halide sensitive YFP; conditions: 10 μM, 24 h
T2 construct: expressed in transfected cells; host or cells: HEK293 Griptite cells stably expressing F508del CFTR, transiently transfected with halide-sensitive eYFP
T2 sequence (P13569 with tags, fused parts or gaps DEL508-508): as above
Procedure, shortened: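 HEK293 Griptite cells stably expressing F508del CFTR, transiently transfected with halide-sensitive eYFP, treated 24 h with 10 μM compound in triplicate, then stimulated 20 min with 25 μM forskolin, 45 μM IBMX and 50 μM genistein. YFP quench after 50 mM iodide imaged 15 times over 40 s on 150-300 cells/well.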

[7] = target: T1, ΔF508-CFTR; assay: short-circuit current (Isc) across CFBE41o− monolayers in Ussing chambers; parameters: expressed in transfected cells; host or cells: CFBE41o- (ΔF508/ΔF508) transduced with ΔF508-CFTR, TranzVector lentivirus, provided by J. P. Clancy; conditions: 10 μM, 24 h
Protocol: Short-circuit current (Isc) was measured across monolayers in modified Ussing chambers. 1×10^6 CFBE41o^− cells were seeded onto 12-mm fibronectin-coated Snapwell inserts (Corning Incorporated, Life Sciences, New-York, N.Y.) and the apical medium was removed after 24 h. Transepithelial resistance was monitored using an EVOM epithelial voltohmmeter (World Precision Instruments, Sarasota, Fla.) and cells were used when the transepithelial resistance was 300-400 ohms·cm^2. In some experiments, F508del-CFBE41o^− monolayers were incubated at 29° C. or treated with glafenine at 37° C. for 24 h before being mounted in EasyMount chambers and voltage clamped using a VCCMC6 multichannel current-voltage clamp (Physiologic Instruments, San Diego, Calif.). The apical membrane conductance was functionally isolated by permeabilizing the basolateral membrane with 200 μg/ml nystatin and imposing an apical-to-basolateral Cl^− gradient. For these experiments the basolateral bathing solution contained (in mM) 1.2 NaCl, 115 Na-gluconate, 25 NaHCO3, 1.2 MgCl2, 4 CaCl2, 2.4, KH2PO4, 1.24 K2HPO4, 10 glucose (pH 7.4 with NaOH). The CaCl2 concentration was increased to 4 mM to compensate for the chelation of calcium by gluconate. The apical bathing solution contained (in mM) 115 NaCl, 25 NaHCO3, 1.2 MgCl2, 1.2 CaCl2, 2.4 KH2PO4, 1.24 K2HPO4, 10 mannitol (pH 7.4 with NaOH). […]

For `CCCc1nn(C)c2c(=O)[nH]c(-c3cc(S(=O)(=O)N4CCN(C)CC4)ccc3OCC)nc12` [sildenafil], the “iodide efflux” value [1] was “negative result”, the “increase in the intensity of the mature band C” value [2] was 30% and the “cAMP-stimulated iodide efflux” value ([3]; 10 μM pretreatment) was “did not restore a strong cAMP-stimulated iodide efflux responses; also recorded: did not produce significant iodide efflux”. The “cAMP-stimulated iodide efflux” value ([3]; 1 mM) was “strong cAMP-stimulated iodide efflux was detected; also recorded: function was detected” and the “signal in the trafficking assay” value ([4]; Microsource Discovery library, medium and weak hits, 20 μM, 24 hours) was “consistently elevated signal”.

For `O=C([O-])CCCc1ccccc1.[Na+]` [sodium 4-phenylbutyrate], the “increase in signal, suitability as positive control for the corrector assay screen” value ([4]; kifunesine 100 μM, Sodium 4 Phenylbutyrate 1 mM, curcumin 40 μM, 24 hours) was “not sufficient to act as a positive control” and the “plasma membrane signal (absorbance), words” value [5] was “increased the plasma membrane signal”.

`COc1ccc(S(=O)(=O)N2CCN(C(C)c3nc(OC4CCCCC4)c4ccccc4n3)CC2)cc1` (stereo not shown) [VRT325] was tested, and the “functional correction in YFP quenching assay” value [6] was “somewhat larger YFP-quenching response”, the “forskolin+genistein-stimulated Isc” value [7] was “not different from vehicle controls” and the “ΔF508-CFTR surface expression increase, normalized to BHK cells expressing wild-type CFTR” value ([4]; 10 μM, 24 h, compared with vehicle alone) was 36%.

With `CC[C@@H](CO)NC(=O)[C@@H]1C=C2c3cccc4[nH]cc(c34)C[C@H]2N(C)C1` [Methylergometrine maleate] the remaining activity at 10 µM ([6]; HEK293, nc = 100% pc = 69.2, read-out: % YFP quench) was 94%, the “hit in screen (class letter)” value ([4]; Prestwick library, initial corrector assay, BHK cells) was “W (Medium and weak hits were defined as compounds giving a cell fluorescence signal that was between 2 and 3 or 1 and 2 standard deviations, respectively, above untreated control wells)” and the “hit in screen (score)” value ([4]; Prestwick library, initial corrector assay, standard deviations above untreated controls) was 1.1.

Source: US20110009351A1, “SCREENING ASSAY TO IDENTIFY CORRECTORS OF PROTEIN TRAFFICKING DEFECTS” (Traffick Therepeutics Inc., priority 2007, published 2011)
